Laboratory results published in ChEMBL document CHEMBL1147331, “Cytotoxic and antimalarial bisbenzylisoquinoline alkaloids from Stephania erecta” (J Nat Prod, 1993).
Converted amounts (≈) assume the structure as drawn.

Columns and labels:
[1] = Cytotoxicity against human LUC1 cells after 3 days by sulforhodamine B assay; format: cell-based; details: read-out: ED50
in vitro [2] = details: mouse, P388 cells
Description: Selectivity index, ratio of ED50 for mice (Mus musculus) P388 cells to ED50 for chloroquine-sensitive Plasmodium falciparum D6

[3] = Selectivity index, ratio of ED50 for human KB-V1 cells to ED50 for chloroquine-sensitive Plasmodium falciparum D6; format: toxicity, cell-based; details: read-out: Ratio ED50
[4] = Selectivity index, ratio of ED50 for human KB cells to ED50 for chloroquine-resistant Plasmodium falciparum W2; format: toxicity, cell-based; details: read-out: Ratio ED50
Plasmodium falciparum [5] = test: Antimalarial activity after 24 hrs against chloroquine-sensitive Plasmodium falciparum D6 infected type A+ human erythrocytes by [3H]hypoxanthine uptake; format: functional; details: read-out: ED50 (the source's name)
Plasmodium falciparum [6] = test: Antimalarial activity after 24 hrs against chloroquine-resistant Plasmodium falciparum W2 infected type A+ human erythrocytes by [3H]hypoxanthine uptake; format: functional; details: read-out: ED50 (the source's name)
in vitro [7] = details: human, A431 cells
Description: Selectivity index, ratio of ED50 for human A431 cells to ED50 for chloroquine-sensitive Plasmodium falciparum D6

[8] = Selectivity index, ratio of ED50 for human KB cells to ED50 for chloroquine-sensitive Plasmodium falciparum D6; format: toxicity, cell-based; details: read-out: Ratio ED50
in vitro [9] = details: human, A431 cells; remark: listed apart in the source
Description: Selectivity index, ratio of ED50 for human A431 cells to ED50 for chloroquine-resistant Plasmodium falciparum W2

[10] = Cytotoxicity against human BCA1 cells after 3 days by sulforhodamine B assay; format: cell-based; details: read-out: ED50
[11] = Selectivity index, ratio of ED50 for human MEL2 cells to ED50 for chloroquine-resistant Plasmodium falciparum W2; format: toxicity, cell-based; details: read-out: Ratio ED50
[12] = Selectivity index, ratio of ED50 for human HT1080 cells to ED50 for chloroquine-sensitive Plasmodium falciparum D6; format: toxicity, cell-based, HT-1080; details: read-out: Ratio ED50
[13] = Selectivity index, ratio of ED50 for human KB-V1 cells to ED50 for chloroquine-resistant Plasmodium falciparum W2; format: toxicity, cell-based; details: read-out: Ratio ED50
[14] = Cytotoxicity against human Col1 cells after 3 days by sulforhodamine B assay; format: cell-based; details: read-out: ED50
[15] = Selectivity index, ratio of ED50 for human LNCaP cells to ED50 for chloroquine-resistant Plasmodium falciparum W2; format: toxicity, cell-based; details: read-out: Ratio ED50
[16] = Selectivity index, ratio of ED50 for human LUC1 cells to ED50 for chloroquine-sensitive Plasmodium falciparum D6; format: toxicity, cell-based; details: read-out: Ratio ED50
[17] = Selectivity index, ratio of ED50 for human BCA1 cells to ED50 for chloroquine-sensitive Plasmodium falciparum D6; format: toxicity, cell-based; details: read-out: Ratio ED50
[18] = Selectivity index, ratio of ED50 for human BCA1 cells to ED50 for chloroquine-resistant Plasmodium falciparum W2; format: toxicity, cell-based; details: read-out: Ratio ED50
[19] = Cytotoxicity against human SK-MEL-2 cells after 3 days by sulforhodamine B assay; format: cell-based; details: read-out: ED50
[20] = Cytotoxicity against human HT1080 cells after 3 days by sulforhodamine B assay; format: cell-based, HT-1080; details: read-out: ED50
[21] = Cytotoxicity against human LNCAP cells after 3 days by sulforhodamine B assay; format: cell-based; details: read-out: ED50
[22] = Selectivity index, ratio of ED50 for human ZR-75-1 cells to ED50 for chloroquine-sensitive Plasmodium falciparum D6; format: toxicity, cell-based; details: read-out: Ratio ED50
[23] = Selectivity index, ratio of ED50 for human ZR-75-1 cells to ED50 for chloroquine-resistant Plasmodium falciparum W2; format: toxicity, cell-based; details: read-out: Ratio ED50
[24] = Selectivity index, ratio of ED50 for human COL1 cells to ED50 for chloroquine-sensitive Plasmodium falciparum D6; format: toxicity, cell-based; details: read-out: Ratio ED50
[25] = Selectivity index, ratio of ED50 for human COL1 cells to ED50 for chloroquine-resistant Plasmodium falciparum W2; format: toxicity, cell-based; details: read-out: Ratio ED50
[26] = Selectivity index, ratio of ED50 for human LNCaP cells to ED50 for chloroquine-sensitive Plasmodium falciparum D6; format: toxicity, cell-based; details: read-out: Ratio ED50
[27] = Cytotoxicity against human KBV1 cells after 3 days by sulforhodamine B assay; format: cell-based, KB-V1; details: read-out: ED50
in vitro [28] = details: mouse, P388 cells; remark: listed apart in the source
Description: Selectivity index, ratio of ED50 for mice (Mus musculus) P388 cells to ED50 for chloroquine-resistant Plasmodium falciparum W2

[29] = Selectivity index, ratio of ED50 for human LUC1 cells to ED50 for chloroquine-resistant Plasmodium falciparum W2; format: toxicity, cell-based; details: read-out: Ratio ED50
[30] = Cytotoxicity against human KB cells after 3 days by sulforhodamine B assay; format: cell-based; details: read-out: ED50
[31] = Cytotoxicity against human ZR-75-1 cells after 3 days by sulforhodamine B assay; format: cell-based; details: read-out: ED50
[32] = Cytotoxicity against mouse P388 cells after 2 days by sulforhodamine B assay; format: cell-based; details: read-out: ED50
[33] = Selectivity index, ratio of ED50 for human HT1080 cells to ED50 for chloroquine-resistant Plasmodium falciparum W2; format: toxicity, cell-based, HT-1080; details: read-out: Ratio ED50
[34] = Cytotoxicity against human A431 cells after 3 days by sulforhodamine B assay; format: cell-based, A-431; details: read-out: ED50
[35] = Selectivity index, ratio of ED50 for human MEL2 cells to ED50 for chloroquine-sensitive Plasmodium falciparum D6; format: toxicity, cell-based; details: read-out: Ratio ED50

| SMILES | CC50 at 72 h [1] [µg/mL] | selectivity ratio (in vitro [2]) | selectivity ratio [3] | selectivity ratio [4] | EC50 (Plasmodium falciparum [5]) [µg/mL] | EC50 (Plasmodium falciparum [6]) [µg/mL] | selectivity ratio (in vitro [7]) | selectivity ratio [8] | selectivity ratio (in vitro [9]) | CC50 at 72 h [10] [µg/mL] | selectivity ratio [11] | selectivity ratio [12] | selectivity ratio [13] | CC50 at 72 h [14] [µg/mL] | selectivity ratio [15] | selectivity ratio [16] | selectivity ratio [17] | selectivity ratio [18] | CC50 at 72 h [19] [µg/mL] | CC50 at 72 h [20] [µg/mL] | also measured |
| --- | --- | --- | --- | --- | --- | --- | --- | --- | --- | --- | --- | --- | --- | --- | --- | --- | --- | --- | --- | --- | --- |
| C=C[C@H]1CN2CC[C@H]1C[C@H]2[C@H](O)c1ccnc2ccc(OC)cc12 [QUININE] | > 20 | > 658 | 737 | 649 | 0.0076 (≈ 0.0234 µM) | 0.0308 (≈ 0.0949 µM) | > 2630 | > 2630 | 649 | > 20 | 649 | > 2630 | 182 | > 20 | 649 | > 2630 | > 2630 | 649 | > 20 | > 20 | CC50 at 72 h [21]: > 20 µg/mL; selectivity ratio [22]: > 2630; selectivity ratio [23]: 649; selectivity ratio [24]: > 2630; selectivity ratio [25]: 649; selectivity ratio [26]: > 2630; CC50 at 72 h [27]: 5.6 µg/mL (≈ 17.3 µM); selectivity ratio (in vitro [28]): > 658; selectivity ratio [29]: 649; CC50 at 72 h [30]: > 20 µg/mL; CC50 at 72 h [31]: > 20 µg/mL; CC50 at 48 h [32]: > 5 µg/mL; selectivity ratio [33]: 649; CC50 at 72 h [34]: > 20 µg/mL; selectivity ratio [35]: > 2630 |
| COc1ccc2cc1Oc1ccc(cc1)C[C@H]1c3c(cc(OC)c(O)c3Oc3cc4c(cc3OC)CCN(C)[C@@H]4C2)CCN1C [HOMOAROMOLINE] | 8.6 (≈ 14.1 µM) | 35 | 30 | 22 | 0.105 (≈ 0.172 µM) | 0.288 (≈ 0.474 µM) | 85 | 60 | 31 | 3.6 (≈ 5.91 µM) | 31 | 86 | 11 | 10 (≈ 16.4 µM) | 12 | 93 | 34 | 13 | 9 (≈ 14.8 µM) | 9 (≈ 14.8 µM) | CC50 at 72 h [21]: 3.4 µg/mL (≈ 5.59 µM); selectivity ratio [22]: 19; selectivity ratio [23]: 7; selectivity ratio [24]: 96; selectivity ratio [25]: 35; selectivity ratio [26]: 33; CC50 at 72 h [27]: 3.1 µg/mL (≈ 5.09 µM); selectivity ratio (in vitro [28]): 13; selectivity ratio [29]: 34; CC50 at 72 h [30]: 6.3 µg/mL (≈ 10.3 µM); CC50 at 72 h [31]: 1.2 µg/mL (≈ 1.97 µM); CC50 at 48 h [32]: 3.7 µg/mL (≈ 6.08 µM); selectivity ratio [33]: 31; CC50 at 72 h [34]: 8.9 µg/mL (≈ 14.6 µM); selectivity ratio [35]: 86 |
| COc1ccc2cc1Oc1ccc(cc1)C[C@H]1c3cc(c(OC)cc3CCN1C)Oc1c(O)c(OC)cc3c1[C@@H](C2)N(C)CC3 | 9.7 (≈ 15.9 µM) | 61 | 31 | 28 | 0.121 (≈ 0.198 µM) | 0.23 (≈ 0.377 µM) | 41 | 54 | 21 | 5 (≈ 8.21 µM) | 65 | 83 | 16 | 11.1 (≈ 18.2 µM) | 26 | 80 | 42 | 22 | 14.9 (≈ 24.5 µM) | 10 (≈ 16.4 µM) | CC50 at 72 h [21]: 5.9 µg/mL (≈ 9.69 µM); selectivity ratio [22]: 21; selectivity ratio [23]: 11; selectivity ratio [24]: 92; selectivity ratio [25]: 48; selectivity ratio [26]: 49; CC50 at 72 h [27]: 3.7 µg/mL (≈ 6.08 µM); selectivity ratio (in vitro [28]): 32; selectivity ratio [29]: 42; CC50 at 72 h [30]: 6.5 µg/mL (≈ 10.7 µM); CC50 at 72 h [31]: 2.5 µg/mL (≈ 4.11 µM); CC50 at 48 h [32]: 7.4 µg/mL (≈ 12.2 µM); selectivity ratio [33]: 44; CC50 at 72 h [34]: 4.9 µg/mL (≈ 8.05 µM); selectivity ratio [35]: 124 |
| COc1ccc2cc1Oc1ccc(cc1)C[C@H]1c3c(cc(OC)c(O)c3Oc3cc4c(cc3OC)CCN[C@@H]4C2)CCN1C | 9 (≈ 15.1 µM) | 32 | 35 | 26 | 0.063 (≈ 0.106 µM) | 0.223 (≈ 0.375 µM) | 132 | 92 | 37 | 4.6 (≈ 7.73 µM) | 60 | 110 | 10 | 10.3 (≈ 17.3 µM) | 26 | 143 | 73 | 21 | 13.4 (≈ 22.5 µM) | 6.9 (≈ 11.6 µM) | CC50 at 72 h [21]: 5.8 µg/mL (≈ 9.75 µM); selectivity ratio [22]: 29; selectivity ratio [23]: 8; selectivity ratio [24]: 164; selectivity ratio [25]: 46; selectivity ratio [26]: 92; CC50 at 72 h [27]: 2.2 µg/mL (≈ 3.7 µM); selectivity ratio (in vitro [28]): 9; selectivity ratio [29]: 40; CC50 at 72 h [30]: 5.8 µg/mL (≈ 9.75 µM); CC50 at 72 h [31]: 1.8 µg/mL (≈ 3.03 µM); CC50 at 48 h [32]: 2 µg/mL (≈ 3.36 µM); selectivity ratio [33]: 31; CC50 at 72 h [34]: 8.3 µg/mL (≈ 14 µM); selectivity ratio [35]: 213 |
| COc1ccc2cc1Oc1ccc(cc1)C[C@H]1c3c(cc(OC)c(OC)c3Oc3cc4c(cc3OC)CCN(C)[C@@H]4C2)CCN1C [OBABERINE] | 9.7 (≈ 15.6 µM) | 18 | 11 | 40 | 0.231 (≈ 0.371 µM) | 0.216 (≈ 0.347 µM) | 38 | 37 | 40 | 4.6 (≈ 7.39 µM) | 93 | 45 | 12 | 10.8 (≈ 17.3 µM) | 23 | 42 | 20 | 21 | 20 (≈ 32.1 µM) | 10.4 (≈ 16.7 µM) | CC50 at 72 h [21]: 5 µg/mL (≈ 8.03 µM); selectivity ratio [22]: 17; selectivity ratio [23]: 19; selectivity ratio [24]: 47; selectivity ratio [25]: 50; selectivity ratio [26]: 22; CC50 at 72 h [27]: 2.6 µg/mL (≈ 4.17 µM); selectivity ratio (in vitro [28]): 19; selectivity ratio [29]: 45; CC50 at 72 h [30]: 8.6 µg/mL (≈ 13.8 µM); CC50 at 72 h [31]: 4 µg/mL (≈ 6.42 µM); CC50 at 48 h [32]: 4.1 µg/mL (≈ 6.58 µM); selectivity ratio [33]: 48; CC50 at 72 h [34]: 8.7 µg/mL (≈ 14 µM); selectivity ratio [35]: 87 |
